Source: US20250223307A1, “MDM2/MDMX DOUBLE-TARGET INHIBITOR COMPOUND, PRODRUG, PHARMACEUTICAL COMPOSITION, AND PREPARATION METHOD THEREFOR AND USE THEREOF” (GLOBAL HEALTH DRUG DISCOVERY INSTITUTE, priority 2022, published 2025)

Legend:
MDMX = biological target: T1, MDMX (Homo sapiens, UniProt O15151); test: HTRF test: inhibition of MDMX-p53 protein binding
T1 sequence (O15151 2-134): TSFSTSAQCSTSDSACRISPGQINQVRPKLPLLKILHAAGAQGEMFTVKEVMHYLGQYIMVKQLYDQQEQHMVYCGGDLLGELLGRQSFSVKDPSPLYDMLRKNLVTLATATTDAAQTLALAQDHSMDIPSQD

MDM2 = MDM2 (Homo sapiens, UniProt Q00987); test: HTRF test: inhibition of MDM2-p53 protein binding
[1] = tested on: Blood cancer cells RS4; 11; test: CellTiter Glo test: growth inhibition of cells; type: cell-based; details: Homo sapiens, 11 cells, 72 h, cell viability

Sequence of MDM2 (Q00987 2-138): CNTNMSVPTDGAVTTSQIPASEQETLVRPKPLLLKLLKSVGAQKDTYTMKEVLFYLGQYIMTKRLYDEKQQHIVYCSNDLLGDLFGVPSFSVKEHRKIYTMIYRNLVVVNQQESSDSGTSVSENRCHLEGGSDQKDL

| IC50 (MDMX) | IC50 (MDM2) | IC50 [1] | SMILES |
| --- | --- | --- | --- |
| 10 to 100 nM | < 10 nM | ≤ 1000 nM | O=C(NCCO)C(c1ccc(Cl)cc1)N1C(=O)N/C(=C\c2c[nH]c3c(F)c(Cl)ccc23)C1=O (stereo not drawn) [Compound 59, (Z)-2-(4-((6-chloro-7-fluoro-1H-indol-3-yl)methylene)-2,5-dioxoimidazolidin-1-yl)-2-(4-chlorophenyl)-N-(2-hydroxyethyl)acetamide] |
| < 10 nM | < 10 nM | 1000 to 10000 nM | Cc1c(Cl)ccc2c(/C=C3\NC(=O)N(C(C(=O)NC(CO)CO)c4ccc(C#N)cc4)C3=O)c[nH]c12 (stereo not drawn) [Compound 32, (Z)-2-(4-((6-chloro-7-methyl-1H-indol-3-yl)methylene)-2,5-dioxoimidazolidin-1-yl)-2-(4-cyanophenyl)-N-(1,3-dihydroxypropan-2-yl)acetamide] |
| 10 to 100 nM | 10 to 100 nM | ≤ 1000 nM | O=C1N/C(=C\c2c[nH]c3cc(Cl)ccc23)C(=O)N1[C@@H](CO)c1ccc(F)c(F)c1 [Compound 54, (R,Z)-5-((6-chloro-1H-indol-3-yl)methylene)-3-(1-(3,4-difluorophenyl)-2-hydroxyethyl)imidazolidine-2,4-dione] |
| < 10 nM | < 10 nM | ≤ 1000 nM | O=C1N/C(=C\c2c[nH]c3c(F)c(Cl)ccc23)C(=O)N1C(CO)c1ccc(F)cc1 (stereo not drawn) [Compound 84, (Z)-5-((6-chloro-7-fluoro-1H-indol-3-yl)methylene)-3-(1-(4-fluorophenyl)-2-hydroxyethyl)imidazolidine-2,4-dione] |
| 10 to 100 nM | < 10 nM | ≤ 1000 nM | N#Cc1ccc(CN2C(=O)N/C(=C\c3c[nH]c4c(F)c(Cl)ccc34)C2=O)c(F)c1F [Compound 34, 4-{[(4Z)-4-[(6-chloro-7-fluoro-1H-indol-3-yl)methylene]-2,5-dioxoimidazolidin-1-yl]methyl}-2,3-difluorobenzonitrile] |
| 10 to 100 nM | 10 to 100 nM | ≤ 1000 nM | O=C1N/C(=C\c2c[nH]c3cc(Cl)ccc23)C(=O)N1C(CO)c1ccc(Cl)cc1 (stereo not drawn) [Compound 45, (Z)-5-((6-chloro-1H-indol-3-yl)methylene)-3-(1-(4-chlorophenyl)-2-hydroxyethyl)imidazolidine-2,4-dione] |
| 10 to 100 nM | 10 to 100 nM | ≤ 1000 nM | O=C1N/C(=C\c2c[nH]c3c(F)c(Cl)ccc23)C(=O)N1C(CO)c1ccc(F)c(F)c1 (stereo not drawn) [Compound 86, (Z)-5-((6-chloro-7-fluoro-1H-indol-3-yl)methylene)-3-(1-(3,4-difluorophenyl)-2-hydroxyethyl)imidazolidine-2,4-dione] |
| 10 to 100 nM | 10 to 100 nM | ≤ 1000 nM | O=C1N/C(=C\c2c[nH]c3c(F)c(Cl)ccc23)C(=O)N1Cc1c(F)cc(Cl)cc1F [Compound 102, (Z)-3-(4-chloro-2,6-difluorobenzyl)-5-((6-chloro-7-fluoro-1H-indol-3-yl)methylene)imidazolidine-2,4-dione] |
| 10 to 100 nM | 10 to 100 nM | ≤ 1000 nM | O=C1N/C(=C\c2c[nH]c3cc(Cl)ccc23)C(=O)N1Cc1ccc(F)cc1 [Compound 3, (Z)-5-((6-chloro-1H-indol-3-yl)methylene)-3-(4-fluorobenzyl)imidazolidine-2,4-dione] |
| 10 to 100 nM | 10 to 100 nM | ≤ 1000 nM | N#Cc1ccc(CN2C(=O)N/C(=C\c3c[nH]c4cc(Cl)ccc34)C2=O)cc1 [Compound 4, (Z)-4-((4-((6-chloro-1H-indol-3-yl)methylene)-2,5-dioxoimidazolidin-1-yl)methyl)benzonitrile] |
| < 10 nM | < 10 nM | ≤ 1000 nM | N#Cc1ccc(CN2C(=O)N/C(=C\c3c[nH]c4c(F)c(Cl)ccc34)C2=O)cc1 [Compound 16, (Z)-4-((4-((6-chloro-7-fluoro-1H-indol-3-yl)methylene)-2,5-dioxoimidazolidin-1-yl)methyl)benzonitrile] |
| < 10 nM | < 10 nM | ≤ 1000 nM | N#Cc1ccc(C(C(=O)NCCO)N2C(=O)N/C(=C\c3c[nH]c4c(F)c(Cl)ccc34)C2=O)cc1F (stereo not drawn) [Compound 41, (Z)-2-(4-((6-chloro-7-fluoro-1H-indol-3-yl)methylene)-2,5-dioxoimidazolidin-1-yl)-2-(4-cyano-3-fluorophenyl)-N-(2-hydroxyethyl)acetamide] |
| 10 to 100 nM | < 10 nM | 1000 to 10000 nM | N#Cc1ccc(C(C(=O)NCCO)N2C(=O)N/C(=C\c3c[nH]c4cc(Cl)ccc34)C2=O)cc1 (stereo not drawn) [Compound 61, (Z)-2-(4-((6-chloro-1H-indol-3-yl)methylene)-2,5-dioxoimidazolidin-1-yl)-2-(4-cyanophenyl)-N-(2-hydroxyethyl)acetamide] |
| < 10 nM | < 10 nM | ≤ 1000 nM | Cc1c(Cl)ccc2c(/C=C3\NC(=O)N(C(C(=O)NCCO)c4ccc(C#N)c(F)c4)C3=O)c[nH]c12 (stereo not drawn) [Compound 67, (Z)-2-(4-((6-chloro-7-methyl-1H-indol-3-yl)methylene)-2,5-dioxoimidazolidin-1-yl)-2-(4-cyano-3-fluorophenyl)-N-(2-hydroxyethyl)acetamide] |
| 10 to 100 nM | 10 to 100 nM | 1000 to 10000 nM | O=C1N/C(=C\c2c[nH]c3cc(Br)ccc23)C(=O)N1Cc1ccc(Cl)cc1 [Compound 5, (Z)-5-((6-bromo-1H-indol-3-yl)methylene)-3-(4-chlorobenzyl)imidazolidine-2,4-dione] |
| 10 to 100 nM | 10 to 100 nM | 1000 to 10000 nM | O=C1N/C(=C\c2c[nH]c3cc(Cl)ccc23)C(=O)N1Cc1ccc(F)c(F)c1 [Compound 1, (Z)-5-((6-chloro-1H-indol-3-yl)methylene)-3-(3,4-difluorobenzyl)imidazolidine-2,4-dione] |
| 10 to 100 nM | < 10 nM | > 10000 nM | N#Cc1ccc(CN2C(=O)N/C(=C\c3c[nH]c4c(OCF)c(Cl)ccc34)C2=O)cc1 [Compound 13, (Z)-4-((4-((6-chloro-7-(fluoromethoxyl)-1H-indol-3-yl)methylene)-2,5-dioxoimidazolidin-1-yl)methyl)benzonitrile] |
| < 10 nM | < 10 nM | ≤ 1000 nM | Cc1c(Cl)ccc2c(/C=C3\NC(=O)N(C(C(=O)NCC45CCC(O)(CC4)CC5)c4ccc(F)c(F)c4)C3=O)c[nH]c12 (stereo not drawn) [Compound 64, (Z)-2-(4-((6-chloro-7-methyl-1H-indol-3-yl)methylene)-2,5-dioxoimidazolidin-1-yl)-2-(3,4-difluorophenyl)-N-((4-hydroxylbicyclo[2.2.2]octan-1-yl)methyl)acetamide] |
| 10 to 100 nM | 10 to 100 nM | 1000 to 10000 nM | O=C1N/C(=C\c2c[nH]c3c(F)c(Cl)ccc23)C(=O)N1Cc1ccc(F)c(F)c1 [Compound 10, (Z)-5-((6-chloro-7-fluoro-1H-indol-3-yl)methylene)-3-(3,4-difluorobenzyl)imidazolidine-2,4-dione] |
| 10 to 100 nM | < 10 nM | 1000 to 10000 nM | N#Cc1ccc(CN2C(=O)N/C(=C\c3c[nH]c4c(OCF)c(Cl)ccc34)C2=O)cc1F [Compound 11, (Z)-4-((4-((6-chloro-7-(fluoromethoxyl)-1H-indol-3-yl)methylene)-2,5-dioxoimidazolidin-1-yl)methyl)-2-fluorobenzonitrile] |
| 10 to 100 nM | 10 to 100 nM | ≤ 1000 nM | O=C1N/C(=C\c2c[nH]c3c(F)c(Cl)ccc23)C(=O)N1C(CO)c1ccc(Cl)c(F)c1F (stereo not drawn) [Compound 105, (Z)-3-(1-(4-chloro-2,3-difluorophenyl)-2-hydroxyethyl)-5-((6-chloro-7-fluoro-1H-indol-3-yl)methylene)imidazolidine-2,4-dione] |
| 10 to 100 nM | 10 to 100 nM | ≤ 1000 nM | C#Cc1ccc(CN2C(=O)N/C(=C\c3c[nH]c4c(F)c(Cl)ccc34)C2=O)cc1 [Compound 17, (Z)-5-((6-chloro-7-fluoro-1H-indol-3-yl)methylene)-3-(4-acetenylbenzyl)imidazolidine-2,4-dione] |
| 10 to 100 nM | 10 to 100 nM | ≤ 1000 nM | O=C1N/C(=C\c2c[nH]c3cc(Cl)ccc23)C(=O)N1C(CO)c1ccc(Cl)c(F)c1 (stereo not drawn) [Compound 79, (Z)-5-((6-chloro-1H-indol-3-yl)methylene)-3-(1-(4-chloro-3-fluorophenyl)-2-hydroxyethyl)imidazolidine-2,4-dione] |
| > 100 nM | 10 to 100 nM | 1000 to 10000 nM | O=C1N/C(=C\c2c[nH]c3c(F)c(Cl)ccc23)C(=O)N1C(CO)c1cc(F)c(Cl)cc1F (stereo not drawn) [Compound 101, (Z)-3-(1-(4-chloro-2,5-difluorophenyl)-2-hydroxyethyl)-5-((6-chloro-7-fluoro-1H-indol-3-yl)methylene)imidazolidine-2,4-dione] |
| 10 to 100 nM | 10 to 100 nM | 1000 to 10000 nM | O=C(NC(CO)CO)C(c1ccc(F)c(F)c1)N1C(=O)N/C(=C\c2c[nH]c3cc(Cl)ccc23)C1=O (stereo not drawn) [Compound 24, (Z)-2-(4-((6-chloro-1H-indol-3-yl)methylene)-2,5-dioxoimidazolidin-1-yl)-2-(3,4-difluorophenyl)-N-(1,3-dihydroxypropan-2-yl)acetamide] |
| 10 to 100 nM | 10 to 100 nM | ≤ 1000 nM | O=C1N/C(=C\c2c[nH]c3c(F)c(Cl)ccc23)C(=O)N1C(CO)c1ccc(Cl)c(F)c1 (stereo not drawn) [Compound 77, (Z)-3-(1-(4-chloro-3-fluorophenyl)-2-hydroxyethyl)-5-((6-chloro-7-fluoro-1H-indol-3-yl)methylene)imidazolidine-2,4-dione] |
| 10 to 100 nM | 10 to 100 nM | ≤ 1000 nM | Cc1c(Cl)ccc2c(/C=C3\NC(=O)N(C(CO)c4ccc(Cl)cc4)C3=O)c[nH]c12 (stereo not drawn) [Compound 70, (Z)-5-((6-chloro-7-methyl-1H-indol-3-yl)methylene)-3-(1-(4-chlorophenyl)-2-hydroxyethyl)imidazolidine-2,4-dione] |
